# According to patent US20240116994A1, “Peptides And Use Thereof For Diagnosing And Treating Antiphospholipid Syndrome” (UNIVERSITE DE GENEVE, priority 2021, published 2024):
# Where no end group is shown, it is not given here.
# System: aPL produced by mice
# Assay: ELISA of IgG anti-IIa-8.0-biot-2x in serum of lupus-prone mice
# Type: binding
# Details: serum of apoe−/−.Nba2.Yaa mice on HCD (FIG. 3A)
# Description: B6.Nba2. Yaa mice were generated as described.^8 The Apoe^−/− null mutation was introduced in B6.Nba2.Yaa mice by breeding. Eleven-week old Apoe^−/− C57B1/6 and Apoe^−/−Nba2.Yaa mice were subjected to 11 weeks of high cholesterol diet (HCD) (20.1% fat, 1.25% cholesterol, Research Diets, Inc., New Brunswick, NJ), as a model of advanced atherosclerosis. The treatments and atherosclerosis protocols were well-tolerated by the mice, and no adverse events (such as weight loss and signs of systemic toxicity) were reported. At sacrifice, haematological parameters were routinely measured. Animals were euthanized by exsanguination after anesthesia with 4% isoflurane. All breeding and experimental protocols and procedures were reviewed and approved by the Institutional Animal Care and Use Committee of the Geneva University School of Medicine.
# Determination of aPL by ELISA—MaxiSorp™ 96 well plates (Nunc) or Streptavidin plate (Thermofisher) were coated with 10 μg/ml recombinant domains of β2GP1, peptides or biotinylated-peptide prior to incubation with aPLA. Secondary anti-human antibodies conjugated to IR800CW (Rockland) or HRP were used. Protein- or peptide-bound antibodies were detected and quantified by the Odyssey system (Li-Cor Biosciences) or absorbance in optical densities (OD) was determined at 405 nm (molecular Devices™ Filtermax). […]
substance,measurement,value
"IIa-8.0-biot-2x: dimeric biotinylated IIa-8.0 peptide; also used associated with streptavidin magnetic beads (RSRGGMRKRKKPLTGRSRGGMRKRKKPLTG; also: dimeric peptide (two IIa-8.0 copies), biotinylated, site not given here)",interaction with aPL produced by mice,able to interact also with aPL produced by mice
